Source: PubChem BioAssay (NCI)
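1) Cells in 96-well plates. 2) Compound, 48 h, 5 concentrations. 3) Linear interpolation between surrounding doses. 4) Unreached endpoint = highest concentration. The concentration for full growth arrest is given as TGI.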

Tests used:
Experiment in all cases: DTP human tumour cell line panel, 48 h
A498 renal = system: A498 renal
EKVX NSCLC = system: EKVX NSCLC
MCF7 breast = system: MCF7 breast
786-0 renal = system: 786-0 renal
SK-OV-3 ovarian = system: SK-OV-3 ovarian
UACC-62 melanoma = system: UACC-62 melanoma
CCRF-CEM leukemia = system: CCRF-CEM leukemia
OVCAR-4 ovarian = system: OVCAR-4 ovarian
M14 melanoma = system: M14 melanoma
SK-MEL-5 melanoma = system: SK-MEL-5 melanoma
HCT-15 colon = system: HCT-15 colon
HCC-2998 colon = system: HCC-2998 colon
U251 CNS = system: U251 CNS
DU-145 prostate = system: DU-145 prostate
NCI-H460 lung = system: NCI-H460 lung
CAKI-1 renal = system: CAKI-1 renal
ACHN renal = system: ACHN renal
UACC-257 melanoma = system: UACC-257 melanoma
NCI/ADR-RES ovarian = system: NCI/ADR-RES ovarian
MDA-MB-231 breast = system: MDA-MB-231 breast
SNB-75 CNS = system: SNB-75 CNS
OVCAR-5 ovarian = system: OVCAR-5 ovarian
BT-549 breast = system: BT-549 breast
IGROV1 ovarian = system: IGROV1 ovarian
SNB-19 CNS = system: SNB-19 CNS
RXF 393 renal = system: RXF 393 renal
HT29 colon = system: HT29 colon
MDA-MB-435 = system: MDA-MB-435
TK-10 renal = system: TK-10 renal
OVCAR-8 ovarian = system: OVCAR-8 ovarian
UO-31 renal = system: UO-31 renal
COLO 205 colon = system: COLO 205 colon
SF-268 CNS = system: SF-268 CNS
HCT-116 colon = system: HCT-116 colon
OVCAR-3 ovarian = system: OVCAR-3 ovarian
SK-MEL-28 melanoma = system: SK-MEL-28 melanoma
SF-295 CNS = system: SF-295 CNS
NCI-H23 lung = system: NCI-H23 lung
SK-MEL-2 melanoma = system: SK-MEL-2 melanoma
NCI-H226 lung = system: NCI-H226 lung
KM12 colon = system: KM12 colon
PC-3 prostate = system: PC-3 prostate
SW-620 colon = system: SW-620 colon
A549 NSCLC = system: A549 NSCLC
SN12C renal = system: SN12C renal
SR leukemia = system: SR leukemia
T-47D breast = system: T-47D breast
HOP-62 NSCLC = system: HOP-62 NSCLC
K-562 leukemia = system: K-562 leukemia
NCI-H522 lung = system: NCI-H522 lung
RPMI-8226 leukemia = system: RPMI-8226 leukemia
MOLT-4 leukemia = system: MOLT-4 leukemia
MALME-3M melanoma = system: MALME-3M melanoma
HS 578T breast = system: HS 578T breast
SF-539 CNS = system: SF-539 CNS
HOP-92 NSCLC = system: HOP-92 NSCLC
LOX IMVI melanoma = system: LOX IMVI melanoma
HL-60(TB) leukemia = system: HL-60(TB) leukemia

Measured: TGI

OCCN(CCO)c1ccc2c(-c3ccccc3)cc(N(CCO)CCO)nc2n1
not listed: SF-539 CNS | HOP-92 NSCLC | LOX IMVI melanoma | HL-60(TB) leukemia
> 100 µM: all other assays above

NNC(=O)c1ccccc1Nc1nc(-c2cccs2)nc2ccc(Br)cc12
not listed: RXF 393 renal
> 100 µM: all other assays above
